One experiment has as its system HIV-1NL4-3. The experiment is described as follows: microbe, parasite or virus in culture. It counts as cell-based. To be noted: Human immunodeficiency virus 1, NL4. An excerpt:
RF represents the HIV-1 strain HIV-LRF and RFR represents a mixture of resistant strains obtained by selection of RF against the compound of Example 1. […] RFR2 represents a mixture of resistant strains obtained by cloning RFR by three rounds of growth at limiting dilution. […] RFRR represents a mixture of resistant strains obtained by selection of RF against the compounds of Examples 1 and 2 and then cloning by three rounds of growth at limiting dilution. […] SF162 represents the HIV-1 strain SF-162 and SF162R represents a mixture of resistant strains obtained by selection of SF162 against the compound of Example 1. […] 89-959 represents the HIV-1 strain 89-959 and 89-959R represents a mixture of resistant strains obtained by selection of 89-959 against the compound of Example 2. […] NL4 represents the HIV-1 strain HIV-1NL4-3. NL4(G48V) represents a strain having a synthetically generated site-directed mutation in the protease from glycine to valine at amino acid position number 48. NL4(I84V) represents a strain having a synthetically generated site-directed mutation in the protease from isoleucine to valine at amino acid position number 84. NL4(R8Q,M46I) represents a strain having synthetically generated site-directed mutations in the protease from arginine to glutamine at amino acid position number 8 and methionine to isoleucine at amino acid position number 46.

For another experiment, the system named is NLA(P19-003). The experiment is described as follows: Viral isolate resistance assay per Markowitz et al., NLA(P19-003). To be noted: Human immunodeficiency virus 1, read-out: Virus Isolate (EC50 nM) NLA(P19-003). Type of experiment: cell-based, HIV-1. An excerpt:
(§1) RF represents the HIV-1 strain HIV-LRF and RFR represents a mixture of resistant strains obtained by selection of RF against the compound of Example 1. RFR comprises a mixture of viral strains having protease genotypes of G48V (14/40 clones); G48V, V82A (18/40 clones); G48V, L90S (2/40 clones); G48V, 154T, V82A (1/40 clones); G48M (1/40 clones); G48V, Q61H (1/40 clones); V13I, G48V (1/40 clones); G48V, F53L, V82A (1/40 clones); and G48V, V82A, C95Y (1/40 clones). RFR2 represents a mixture of resistant strains obtained by cloning RFR by three rounds of growth at limiting dilution. RFR2 comprises a mixture of viral strains having protease genotypes of G48V, V82A (13/15 clones); G17E, G48V, V82A (1/15 clones); and G48V, V82A, N37D, N88D (1/15 clones). RFRR represents a mixture of resistant strains obtained by selection of RF against the compounds of Examples 1 and 2 and then cloning by three rounds of growth at limiting dilution. RFRR comprises a mixture of viral strains having protease genotypes of G48V, 154T, L63P, V82A (7/9 clones); G48V, 154T, L63P, V82A, N88S (1/9 clones); and G48V, 154T, L63P, G73M, V82A (1/9 clones). SF162 represents the HIV-1 strain SF-162 and SF162R represents a mixture of resistant strains obtained by selection of SF162 against the compound of Example 1. SF162R comprises a mixture of viral strains having protease genotypes of M461, F53L, L63P, A71V, N88D (2/3 clones); and M46I, F53L, L63P, A71V, N88D, Q92R (1/3 clones). 89-959 represents the HIV-1 strain 89-959 and 89-959R represents a mixture of resistant strains obtained by selection of 89-959 against the compound of Example 2. 89-959R comprises a mixture of viral strains having protease genotypes of N88S (4/5 clones); and D25N, T26A, D30N, D37N, R41K, G73D, R87K, N88S (1/4 clones). NL4 represents the HIV-1 strain HIV-1NL4-3. NL4(G48V) represents a strain having a synthetically generated site-directed mutation in the protease from glycine to valine at amino acid position number 48. […]

For the next experiment, the system named is NL4(538/P24-AG). The experiment is described as follows: Viral isolate resistance assay per Markowitz et al., NL4(538/P24-AG). Type of experiment: cell-based, HIV-1. The following applies: Human immunodeficiency virus 1; Table 10; NL4(P22-538) selected against Example 12, 24 passages.
From the text: as §1, with “48. NL4(I84V) represents a strain having a synthetically generated site-directed mutation in the protease from isoleucine to valine at amino acid position number 84. NL4(R8Q,M46I) represents a strain having synthetically generated site-directed mutations in the protease from arginine to glutamine at amino acid position number 8 and methionine to isoleucine at amino acid position number 46. NL4(P22-538) represents a mixture of resistant strains obtained by selection of HIV-1NL4-3 against the compound of Example 10 after 22 passages comprising protease genotypes M46I, L63P, A71V, V82F, I84V (4/10); M46I, L63P, V82F, I84V (3/10); and M46I, A71V, V82F, I84V (3/10). NL4(P37-538) represents resistant strains obtained by selection of HIV-1NL4-3 against the compound of Example 10 after 37 passages comprising protease genotype M46I, L63P, A71V, 184A. NL4(538/524) represents resistant strains obtained by selection of NL4(P22-538) against the compound of Example 5 after 24 passages comprising protease genotype M46I, L63P, A71V, 184A. NL4(538/P7-AG) represents a mixture of resistant strains obtained by selection of NL4(P22-538) against the compound of Example 12 after 7 passages comprising protease genotypes M46I, L63P, A71V, 184A; and V321, V82I. NL4(538/P24-AG) represents resistant strains obtained by selection of NL4(P22-538) against the compound of Example 12 after 24 passages comprising protease genotype M46I, L63P, A71V, 184A.” for “48.”

The next experiment deals with NL4(538/524). The experiment is described as follows: Viral isolate resistance assay per Markowitz et al., NL4(538/524). Type of experiment: cell-based, HIV-1. To be noted: Human immunodeficiency virus 1; Table 10; NL4(P22-538) selected against Example 5, 24 passages.
From the text: as §1, with “48. NL4(I84V) represents a strain having a synthetically generated site-directed mutation in the protease from isoleucine to valine at amino acid position number 84. NL4(R8Q,M46I) represents a strain having synthetically generated site-directed mutations in the protease from arginine to glutamine at amino acid position number 8 and methionine to isoleucine at amino acid position number 46. NL4(P22-538) represents a mixture of resistant strains obtained by selection of HIV-1NL4-3 against the compound of Example 10 after 22 passages comprising protease genotypes M46I, L63P, A71V, V82F, I84V (4/10); M46I, L63P, V82F, I84V (3/10); and M46I, A71V, V82F, I84V (3/10). NL4(P37-538) represents resistant strains obtained by selection of HIV-1NL4-3 against the compound of Example 10 after 37 passages comprising protease genotype M46I, L63P, A71V, 184A. NL4(538/524) represents resistant strains obtained by selection of NL4(P22-538) against the compound of Example 5 after 24 passages comprising protease genotype M46I, L63P, A71V, 184A. NL4(538/P7-AG) represents a mixture of resistant strains obtained by selection of NL4(P22-538) against the compound of Example 12 after 7 passages comprising protease genotypes M46I, L63P, A71V, 184A; and V321, V82I. NL4(538/P24-AG) represents resistant strains obtained by selection of NL4(P22-538) against the compound of Example 12 after 24 passages comprising protease genotype M46I, L63P, A71V, 184A.” for “48.”

The test system of the next experiment is NL4(P37-538). The experiment is described as follows: Viral isolate resistance assay per Markowitz et al., NL4(P37-538). It counts as cell-based, HIV-1. The following applies: Human immunodeficiency virus 1; Table 9; selected against Example 10, 37 passages; read-out: Virus Isolate (EC50 nM) NL4(P37-538). An excerpt: RF represents the HIV-1 strain HIV-LRF and RFR represents a mixture of resistant strains obtained by selection of RF against the compound of Example 1. RFR comprises a mixture of viral strains having protease genotypes of G48V (14/40 clones); G48V, V82A (18/40 clones); G48V, L90S (2/40 clones); G48V, 154T, V82A (1/40 clones); G48M (1/40 clones); G48V, Q61H (1/40 clones); V13I, G48V (1/40 clones); G48V, F53L, V82A (1/40 clones); and G48V, V82A, C95Y (1/40 clones). RFR2 represents a mixture of resistant strains obtained by cloning RFR by three rounds of growth at limiting dilution. RFR2 comprises a mixture of viral strains having protease genotypes of G48V, V82A (13/15 clones); G17E, G48V, V82A (1/15 clones); and G48V, V82A, N37D, N88D (1/15 clones). RFRR represents a mixture of resistant strains obtained by selection of RF against the compounds of Examples 1 and 2 and then cloning by three rounds of growth at limiting dilution. RFRR comprises a mixture of viral strains having protease genotypes of G48V, 154T, L63P, V82A (7/9 clones); G48V, 154T, L63P, V82A, N88S (1/9 clones); and G48V, 154T, L63P, G73M, V82A (1/9 clones). SF162 represents the HIV-1 strain SF-162 and SF162R represents a mixture of resistant strains obtained by selection of SF162 against the compound of Example 1. SF162R comprises a mixture of viral strains having protease genotypes of M461, F53L, L63P, A71V, N88D (2/3 clones); and M46I, F53L, L63P, A71V, N88D, Q92R (1/3 clones). 89-959 represents the HIV-1 strain 89-959 and 89-959R represents a mixture of resistant strains obtained by selection of 89-959 against the compound of Example 2. 89-959R comprises a mixture of viral strains having protease genotypes of N88S (4/5 clones); and D25N, T26A, D30N, D37N, R41K, G73D, R87K, N88S (1/4 clones). NL4 represents the HIV-1 strain HIV-1NL4-3. NL4(G48V) represents a strain having a synthetically generated site-directed mutation in the protease from glycine to valine at amino acid position number 48. NL4(I84V) represents a strain having a synthetically generated site-directed mutation in the protease from isoleucine to valine at amino acid position number 84. NL4(R8Q,M46I) represents a strain having synthetically generated site-directed mutations in the protease from arginine to glutamine at amino acid position number 8 and methionine to isoleucine at amino acid position number 46. NL4(P22-538) represents a mixture of resistant strains obtained by selection of HIV-1NL4-3 against the compound of Example 10 after 22 passages comprising protease genotypes M46I, L63P, A71V, V82F, I84V (4/10); M46I, L63P, V82F, I84V (3/10); and M46I, A71V, V82F, I84V (3/10). NL4(P37-538) represents resistant strains obtained by selection of HIV-1NL4-3 against the compound of Example 10 after 37 passages comprising protease genotype M46I, L63P, A71V, 184A. NL4(538/524) represents resistant strains obtained by selection of NL4(P22-538) against the compound of Example 5 after 24 passages comprising protease genotype M46I, L63P, A71V, 184A. NL4(538/P7-AG) represents a mixture of resistant strains obtained by selection of NL4(P22-538) against the compound of Example 12 after 7 passages comprising protease genotypes M46I, L63P, A71V, 184A; and V321, V82I. NL4(538/P24-AG) represents resistant strains obtained by selection of NL4(P22-538) against the compound of Example 12 after 24 passages comprising protease genotype M46I, L63P, A71V, 184A. NLA(P19-003) represents resistant strains obtained by selection of HIV-1^NL4-3 against the compound of Example 9 after 19 passages comprising protease genotype R8K, M46I. NL4(P34-003) represents resistant strains obtained by selection of HIV-1^NL4-3 against the compound of Example 9 after 34 passages comprising protease genotype R8K, M46I, L63P, A71V, L90M.
The viral isolate resistance results summarized in Tables 7-11 were generated according to the assay procedures described by Markowitz et al., Journal of Virology, vol. […]

The values that follow come from patent US20030207813A1, “Retroviral protease inhibitor combinations” (priority 1995, published 2003).

As a reminder, the EC90 is the point of the concentration-response curve where the effect stands at 90%. As usually defined, the EC50 is the concentration needed to bring the measured effect to its halfway point.

For the compound `Nc1cccc(CN2C(=O)N(Cc3cccc(N)c3)[C@H](Cc3ccccc3)[C@H](O)[C@@H](O)[C@H]2Cc2ccccc2)c1` [Example 13, [4R-(4α,5α,6β,7β)]-1,3-bis[(3-aminophenyl)methyl]hexahydro-5,6-dihydroxy-4,7-bis(phenylmethyl)-2H-1,3-diazepin-2-one], the EC90 with HIV-1NL4-3 (Table 7, EC90, read-out: Virus Isolate (EC90 nM) NL4) came to 250 nM. For the same compound, the EC50 was 250 nM with HIV-1NL4-3 (Table 8, read-out: Virus Isolate (EC50 nM) NL4); 1250 nM in the experiment on NLA(P19-003); more than 31200 nM with NL4(538/P24-AG); more than 31200 nM in the experiment with NL4(538/524); more than 31200 nM in the experiment on NL4(P37-538).
